Test results from patent publication US11274100B2, “EP300/CREBBP inhibitor” (Daiichi Sankyo Company, Limited, priority 2017, dated 2022).

Assays:
H3K27Ac = assay: Intracellular H3K27Ac inhibitory activity in LK2 cells (Test Example 2); assay type: cell-based; settings: Homo sapiens, LK-2, cultured with compound for 3 hours, read-out: Test Example 2 H3K27Ac Inhibition (LK2) IC50
Method: [Test Example 2] Evaluation of Intracellular H3K27Ac Inhibitory Activity
LK2 cells derived from human squamous cell lung cancer were seeded in a 96 well plate at 40000 cells/100 μL/well, and were cultured overnight at 37° C. in 5% CO2. The LK2 cells were purchased from Human Science Research Resources Bank. […] The supernatant was discarded, 4% paraformaldehyde was added thereto at 100 μL/well, and the resultant was allowed to stand still at room temperature for 15 minutes. The 4% paraformaldehyde was discarded, and the resultant was washed with PBS-T. A quenching buffer (PBS-T containing 1% H2O2) was added thereto at of 100 μL/well, and the resultant was allowed to stand still at room temperature for 10 minutes. The resultant was washed with PBS-T, a blocking buffer (StartingBlocK T20 (TBS) Blocking Buffer (Thermo […], #37543)) was added thereto at 200 μL/well, and the resultant was allowed to stand still at room temperature for 1 hour. The supernatant was discarded, Acetyl-Histone H3 (Lys27) (D5E4) XP (registered trademark) Rabbit mAb (cell Signaling, #8173) diluted with a blocking buffer was added thereto at 50 μL/well, and the resultant was allowed to stand still at 4° C. overnight. The resultant was washed with PBS-T, Anti-Rabbit IgG-HRP (Cell Signaling, #7074S) diluted with a blocking buffer was added thereto at 50 μL/well, and the resultant was cultured at room temperature for 1 hour. The resultant was washed with PBS-T, SuperSignal (registered trademark) ELISA Pico Chemiluminescent Substrate (Thermo […], #37069) was added thereto at 50 μL/well, and a signal was measured using EnVision.

CREBBP = CREBBP (Homo sapiens, UniProt Q92793); assay: Histone acetyltransferase inhibitory activity against CREBBP (Test Example 1); assay type: biochemical; settings: 125 ng/mL CREBBP, 2 μM Acetyl-CoA, 100 nM Histone H4(1-25)-GSGSK (Biotin), 28° C. for 1 hour
CREBBP, sequence (Q92793 whole entry): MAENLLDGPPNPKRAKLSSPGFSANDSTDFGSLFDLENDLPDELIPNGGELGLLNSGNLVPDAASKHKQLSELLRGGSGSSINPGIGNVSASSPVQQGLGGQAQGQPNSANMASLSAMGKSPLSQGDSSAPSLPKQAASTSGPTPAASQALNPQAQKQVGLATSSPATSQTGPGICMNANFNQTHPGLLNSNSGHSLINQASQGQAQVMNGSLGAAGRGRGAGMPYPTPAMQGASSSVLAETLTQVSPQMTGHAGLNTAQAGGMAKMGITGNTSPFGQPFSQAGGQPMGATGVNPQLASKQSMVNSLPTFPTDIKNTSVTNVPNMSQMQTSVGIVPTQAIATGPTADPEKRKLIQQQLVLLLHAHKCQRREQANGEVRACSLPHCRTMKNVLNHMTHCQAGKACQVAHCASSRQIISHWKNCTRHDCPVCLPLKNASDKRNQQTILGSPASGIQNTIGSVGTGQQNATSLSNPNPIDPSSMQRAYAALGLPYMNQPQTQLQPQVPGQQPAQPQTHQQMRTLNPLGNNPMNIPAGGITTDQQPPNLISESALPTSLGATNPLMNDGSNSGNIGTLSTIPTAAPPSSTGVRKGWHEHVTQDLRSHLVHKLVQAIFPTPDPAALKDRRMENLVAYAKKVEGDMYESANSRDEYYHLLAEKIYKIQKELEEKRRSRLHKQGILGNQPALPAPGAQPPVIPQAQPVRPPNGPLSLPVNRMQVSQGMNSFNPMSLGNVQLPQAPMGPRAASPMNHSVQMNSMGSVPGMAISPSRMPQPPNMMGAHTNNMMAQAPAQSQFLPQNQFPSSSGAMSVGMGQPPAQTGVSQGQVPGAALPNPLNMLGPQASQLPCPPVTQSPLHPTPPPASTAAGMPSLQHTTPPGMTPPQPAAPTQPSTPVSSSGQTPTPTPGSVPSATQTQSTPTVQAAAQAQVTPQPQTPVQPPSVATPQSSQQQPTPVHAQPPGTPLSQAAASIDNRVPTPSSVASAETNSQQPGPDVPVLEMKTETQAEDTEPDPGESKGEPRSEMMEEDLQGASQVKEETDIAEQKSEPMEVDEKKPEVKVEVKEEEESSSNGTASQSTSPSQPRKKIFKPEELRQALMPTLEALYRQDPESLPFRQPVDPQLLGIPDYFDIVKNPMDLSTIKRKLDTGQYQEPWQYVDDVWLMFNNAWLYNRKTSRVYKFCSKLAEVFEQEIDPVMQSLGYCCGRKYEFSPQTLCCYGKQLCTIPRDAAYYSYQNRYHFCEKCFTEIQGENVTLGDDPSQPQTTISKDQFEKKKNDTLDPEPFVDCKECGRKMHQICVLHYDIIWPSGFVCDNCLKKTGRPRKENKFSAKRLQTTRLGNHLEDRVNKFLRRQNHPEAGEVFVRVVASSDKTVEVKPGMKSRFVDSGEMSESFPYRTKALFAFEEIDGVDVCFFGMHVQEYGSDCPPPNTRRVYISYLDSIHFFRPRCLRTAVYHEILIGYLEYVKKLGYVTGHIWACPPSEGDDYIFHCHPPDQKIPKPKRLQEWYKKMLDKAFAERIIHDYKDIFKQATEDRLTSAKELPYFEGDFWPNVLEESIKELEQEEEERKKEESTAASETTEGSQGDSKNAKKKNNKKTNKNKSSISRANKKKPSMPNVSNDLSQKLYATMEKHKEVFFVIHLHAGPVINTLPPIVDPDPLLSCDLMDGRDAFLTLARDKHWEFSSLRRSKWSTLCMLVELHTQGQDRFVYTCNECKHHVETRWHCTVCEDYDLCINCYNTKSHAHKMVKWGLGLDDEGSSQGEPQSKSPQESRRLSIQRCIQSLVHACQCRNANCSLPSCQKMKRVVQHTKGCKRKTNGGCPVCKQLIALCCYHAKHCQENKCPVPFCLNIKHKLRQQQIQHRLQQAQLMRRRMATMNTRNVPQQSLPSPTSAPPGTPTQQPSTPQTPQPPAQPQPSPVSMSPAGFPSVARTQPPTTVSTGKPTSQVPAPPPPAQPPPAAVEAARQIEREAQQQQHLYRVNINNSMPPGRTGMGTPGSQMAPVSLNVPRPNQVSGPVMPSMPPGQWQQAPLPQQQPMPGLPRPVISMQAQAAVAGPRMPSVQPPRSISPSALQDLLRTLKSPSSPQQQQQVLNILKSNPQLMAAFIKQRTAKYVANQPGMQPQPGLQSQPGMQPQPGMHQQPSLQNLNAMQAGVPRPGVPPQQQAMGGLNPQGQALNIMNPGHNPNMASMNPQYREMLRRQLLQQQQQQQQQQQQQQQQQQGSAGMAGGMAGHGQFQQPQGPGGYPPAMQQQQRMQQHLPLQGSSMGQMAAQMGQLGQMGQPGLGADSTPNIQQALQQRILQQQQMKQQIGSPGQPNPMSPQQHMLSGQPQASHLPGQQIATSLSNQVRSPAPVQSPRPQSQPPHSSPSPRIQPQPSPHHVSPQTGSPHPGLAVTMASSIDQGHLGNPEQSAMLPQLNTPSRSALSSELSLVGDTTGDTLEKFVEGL
Method: (§1) [Test Example 1] Evaluation of Histone
(§2) Acetyltransferase Inhibitory Activity against EP300 and CREBBP
(§3) 10 μL each of reaction solutions each containing a different concentration of the compound of each of Examples 1 to 108b (50 mM Tris-HCl (pH8.0), 0.1 mM EDTA, 1 mM dithiothreitol, 0.01% Tween-20, 0.01% Bovine serum albumin, 330 nM trichostatin A, 2 μM Acetyl-CoA (Sigma-Aldrich, #A2056), 100 nM Histone H4(1-25)-GSGSK (Biotin) (Anaspec, #65242-1), 1% dimethyl sulfoxide, 10 to 0.0006 μM of each compound, 50 ng/mL EP300 or 125 ng/mL CREBBP) was added to respective wells of a 384-well plate, and cultured at 28° C. for 1 hour. Thereafter, 5 μL of 30 μM Lys-CoA (Daiichi Sankyo Co., Ltd.) dissolved in LANCE detection buffer (Perkin Elmer Co., Ltd., #CR97-100) was added to each well. Furthermore, 5 μL of LANCE detection buffer containing 2 nM Eu-anti pan-Ac (Perkin Elmer Co., Ltd., #TRF0412) and 50 nM Sta-Ulight (Perkin Elmer Co., Ltd., #TRF0102) was added to each well, and the resultant was cultured at room temperature overnight. EnVision (Perkin Elmer Co., Ltd., Model 2104-0020) was used to measure ULight signals. […] EP300 and CREBBP were produced and purified by Daiichi Sankyo RD Novare Co., Ltd.

EP300 = EP300 (Homo sapiens, UniProt Q09472); assay: Histone acetyltransferase inhibitory activity against EP300 (Test Example 1); assay type: biochemical; settings: 50 ng/mL EP300, 2 μM Acetyl-CoA, 100 nM Histone H4(1-25)-GSGSK (Biotin), 28° C. for 1 hour
EP300, sequence (Q09472 whole entry): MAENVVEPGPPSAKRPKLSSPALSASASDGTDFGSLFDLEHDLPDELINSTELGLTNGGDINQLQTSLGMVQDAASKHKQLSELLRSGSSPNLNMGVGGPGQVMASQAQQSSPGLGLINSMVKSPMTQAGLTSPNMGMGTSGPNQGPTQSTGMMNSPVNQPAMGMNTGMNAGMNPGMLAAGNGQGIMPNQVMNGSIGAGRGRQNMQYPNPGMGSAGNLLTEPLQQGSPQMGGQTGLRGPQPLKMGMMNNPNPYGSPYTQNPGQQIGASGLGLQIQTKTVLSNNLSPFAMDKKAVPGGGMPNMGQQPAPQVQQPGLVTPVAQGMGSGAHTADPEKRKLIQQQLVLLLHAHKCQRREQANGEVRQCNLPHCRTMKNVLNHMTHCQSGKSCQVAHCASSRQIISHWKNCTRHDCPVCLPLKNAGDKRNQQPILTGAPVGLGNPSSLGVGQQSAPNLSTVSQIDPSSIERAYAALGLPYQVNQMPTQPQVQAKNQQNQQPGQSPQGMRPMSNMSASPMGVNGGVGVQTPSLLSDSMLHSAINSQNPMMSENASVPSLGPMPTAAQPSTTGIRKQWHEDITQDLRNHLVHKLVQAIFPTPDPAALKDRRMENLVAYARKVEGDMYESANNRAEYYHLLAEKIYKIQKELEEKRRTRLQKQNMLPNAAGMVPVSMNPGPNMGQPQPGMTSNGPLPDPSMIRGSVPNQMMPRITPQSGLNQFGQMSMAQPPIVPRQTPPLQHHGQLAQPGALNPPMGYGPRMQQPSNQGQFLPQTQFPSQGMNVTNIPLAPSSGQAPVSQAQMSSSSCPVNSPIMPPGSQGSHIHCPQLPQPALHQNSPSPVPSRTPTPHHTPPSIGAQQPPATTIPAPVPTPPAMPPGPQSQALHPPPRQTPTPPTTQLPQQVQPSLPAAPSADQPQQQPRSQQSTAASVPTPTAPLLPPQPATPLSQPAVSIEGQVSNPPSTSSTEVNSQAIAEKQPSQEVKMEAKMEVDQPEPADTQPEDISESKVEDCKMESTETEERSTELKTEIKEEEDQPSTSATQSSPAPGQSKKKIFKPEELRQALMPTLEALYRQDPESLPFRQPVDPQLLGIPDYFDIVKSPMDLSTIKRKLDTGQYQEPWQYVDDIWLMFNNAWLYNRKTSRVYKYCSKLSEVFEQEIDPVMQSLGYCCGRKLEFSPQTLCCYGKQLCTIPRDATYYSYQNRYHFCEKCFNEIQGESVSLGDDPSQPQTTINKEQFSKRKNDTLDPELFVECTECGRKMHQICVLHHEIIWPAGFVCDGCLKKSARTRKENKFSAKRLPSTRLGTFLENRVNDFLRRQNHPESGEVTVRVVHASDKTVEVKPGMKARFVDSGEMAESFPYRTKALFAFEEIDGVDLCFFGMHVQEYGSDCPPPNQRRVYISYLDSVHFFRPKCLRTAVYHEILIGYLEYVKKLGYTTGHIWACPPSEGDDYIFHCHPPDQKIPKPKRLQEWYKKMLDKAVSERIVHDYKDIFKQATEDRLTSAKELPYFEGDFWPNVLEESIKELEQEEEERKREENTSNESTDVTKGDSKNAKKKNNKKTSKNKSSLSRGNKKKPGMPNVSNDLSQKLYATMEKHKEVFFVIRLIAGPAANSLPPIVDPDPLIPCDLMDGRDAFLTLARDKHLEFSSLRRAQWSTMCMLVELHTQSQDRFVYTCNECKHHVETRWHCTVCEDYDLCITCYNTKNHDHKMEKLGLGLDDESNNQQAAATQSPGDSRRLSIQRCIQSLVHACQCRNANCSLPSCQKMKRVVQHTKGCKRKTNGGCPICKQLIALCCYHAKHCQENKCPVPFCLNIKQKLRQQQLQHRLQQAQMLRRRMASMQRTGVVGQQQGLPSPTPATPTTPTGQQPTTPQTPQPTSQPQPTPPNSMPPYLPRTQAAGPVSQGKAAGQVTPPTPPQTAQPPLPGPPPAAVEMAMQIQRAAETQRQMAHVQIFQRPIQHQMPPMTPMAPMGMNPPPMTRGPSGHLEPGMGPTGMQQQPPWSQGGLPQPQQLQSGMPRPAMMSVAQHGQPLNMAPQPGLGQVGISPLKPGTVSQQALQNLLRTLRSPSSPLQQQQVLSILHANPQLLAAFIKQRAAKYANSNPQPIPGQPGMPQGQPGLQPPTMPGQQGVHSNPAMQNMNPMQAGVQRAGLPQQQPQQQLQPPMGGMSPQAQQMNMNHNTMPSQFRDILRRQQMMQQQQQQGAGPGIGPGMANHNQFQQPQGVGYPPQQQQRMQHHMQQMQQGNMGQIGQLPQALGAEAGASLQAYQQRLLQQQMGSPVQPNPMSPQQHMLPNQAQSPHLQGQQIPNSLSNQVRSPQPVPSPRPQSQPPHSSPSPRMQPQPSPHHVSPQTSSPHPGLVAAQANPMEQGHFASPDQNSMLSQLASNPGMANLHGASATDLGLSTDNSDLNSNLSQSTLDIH
Method: as §1, §2, §3

SMILES: COc1ccc(C2(C(=O)N(C)CC(=O)Nc3cccc4[nH]ncc34)CCCCC2)cc1 [Example 2, N-[2-(1H-Indazol-4-ylamino)-2-oxoethyl]-1-(4-methoxyphenyl)-N-methylcyclohexanecarboxamide]
- IC50 (H3K27Ac): 1.01 µM
- IC50 (CREBBP): 128 nM
- IC50 (EP300): 193 nM

SMILES: COc1ccc(C2(C(=O)N3CCC[C@@H]3C(=O)Nc3ccc(OCCN4CCOCC4)cc3C#N)CCCC2)cc1 [Example 23, N-{2-Cyano-4-[2-(morpholin-4-yl)ethoxy]phenyl}-1-{[1-(4-methoxyphenyl)cyclopentyl]carbonyl}-D-prolinamide]
- IC50 (H3K27Ac): 0.121 µM
- IC50 (CREBBP): 171 nM
- IC50 (EP300): 101 nM

SMILES: COc1ccc(C2(C(=O)N3C[C@H](OC)C[C@@H]3C(=O)Nc3cccc4[nH]ncc34)CCCC2)cc1 [Example 6, (4R)—N-1H-Indazol-4-yl-4-methoxy-1-{[1-(4-methoxyphenyl)cyclopentyl]carbonyl}-D-prolinamide]
- IC50 (H3K27Ac): 9.64 µM

SMILES: COc1ccc(C2(C(=O)N3CCC[C@@H]3C(=O)Nc3cccc4ccccc34)CCCC2)cc1 [Example 13, 1-{[1-(4-Methoxyphenyl)cyclopentyl]carbonyl}-N-naphthalen-1-yl-D-prolinamide]
- IC50 (H3K27Ac): 3.99 µM

SMILES: N#Cc1ccccc1NC(=O)[C@H]1C[C@@H](F)CN1C(=O)C1(c2ccc(C(=O)O)cc2)CCCC1 [Example 29, 4-[1-({(2R,4R)-2-[(2-Cyanophenyl)carbamoyl]-4-fluoropyrrolidin-1-yl}carbonyl)cyclopentyl] benzoic acid]
- IC50 (H3K27Ac): 0.474 µM
- IC50 (CREBBP): 125 nM
- IC50 (EP300): 20 nM

SMILES: COc1ccc(C2(C(=O)N3CCC[C@@H]3C(=O)Nc3ccc(OCc4ccccc4)cc3)CCCC2)cc1 [Example 12, N-[4-(Benzyloxy)phenyl]-1-{[1-(4-methoxyphenyl)cyclopentyl]carbonyl}-D-prolinamide]
- IC50 (H3K27Ac): 2.58 µM

SMILES: COc1ccc(C2(C(=O)N3CS(=O)(=O)C[C@@H]3C(=O)Nc3ccc4[nH]ncc4n3)CCCCC2)cc1 [Example 40, (4S)-3-{[1-(4-Methoxyphenyl)cyclohexyl]carbonyl}-N-(1H-pyrazolo[4,3-b]pyridin-5-yl)-1,3-thiazolidin-4-carboxamide 1,1-dioxide]
- IC50 (H3K27Ac): 0.027 µM
- IC50 (CREBBP): 29 nM
- IC50 (EP300): 22 nM

SMILES: COc1ccc(C2(C(=O)N3CCC[C@@H]3C(=O)Nc3ccc4[nH]c(=O)[nH]c4c3)CCCC2)cc1 [Example 19, l-{[1-(4-Methoxyphenyl)cyclopentyl]carbonyl}-N-(2-oxo-2,3-dihydro-1H-benzimidazol-5-yl)-D-prolinamide]
- IC50 (H3K27Ac): 1.05 µM
- IC50 (CREBBP): 169 nM
- IC50 (EP300): 171 nM

SMILES: COc1ccc(C2(C(=O)N3C[S+]([O-])C[C@@H]3C(=O)Nc3cccc4[nH]ncc34)CCCC2)cc1 (stereo partly drawn) [Example 28b, (4S)—N-(1H-Indazol-4-yl)-3-{[1-(4-methoxyphenyl)cyclopentyl]carbonyl}-1,3-thiazolidin-4-carboxamide 1-oxide]
- IC50 (H3K27Ac): 6.88 µM

SMILES: COc1ccc(C2(C(=O)N3CCC[C@@H]3C(=O)Nc3ccccc3)CCCC2)cc1 [Example 8, 1-{[1-(4-Methoxyphenyl)cyclopentyl]carbonyl}-N-phenyl-D-prolinamide]
- IC50 (H3K27Ac): 6.53 µM

SMILES: COc1ccc(C2(C(=O)N3CCC[C@@H]3C(=O)Nc3ccccc3OC)CCCC2)cc1 [Example 10, N-(2-Methoxyphenyl)-1-{[1-(4-methoxyphenyl)cyclopentyl]carbonyl}-D-prolinamide]
- IC50 (H3K27Ac): 6.11 µM

SMILES: COc1ccc(C2(C(=O)N3CCC[C@@H]3C(=O)Nc3cccc4[nH]ncc34)CCC(F)(F)CC2)cc1 [Example 55]
- IC50 (H3K27Ac): 2.02 µM

SMILES: COc1ccc(C2(C(=O)N3[C@H](C)CC[C@@H]3C(=O)Nc3cccc4[nH]ncc34)CCCC2)cc1 [Example 25, (5R)—N-1H-Indazol-4-yl-1-{[1-(4-methoxyphenyl)cyclopentyl]carbonyl}-5-methyl-D-prolinamide]
- IC50 (H3K27Ac): 5.32 µM

SMILES: COc1ccc(C2(C(=O)N3CCC[C@@H]3C(=O)Nc3cccc(C)c3)CCCC2)cc1 [Example 9, 1-{[1-(4-Methoxyphenyl)cyclopentyl]carbonyl}-N-(3-methylphenyl)-D-prolinamide]
- IC50 (H3K27Ac): 8.45 µM

SMILES: COc1ccc(C2(C(=O)N3C[C@@H](F)C[C@@H]3C(=O)Nc3cccc4[nH]ncc34)CCCC2)cc1 [Example 7, (4S)-4-Fluoro-N-1H-indazol-4-yl-1-{[1-(4-methoxyphenyl)cyclopentyl]carbonyl}-D-prolinamide]
- IC50 (H3K27Ac): 8.75 µM

SMILES: COc1ccc(C2(C(=O)N3CCCCC[C@@H]3C(=O)Nc3ccccc3C#N)CCCC2)cc1 [Example 27, (2R)—N-(2-Cyanophenyl)-1-{[1-(4-methoxyphenyl)cyclopentyl]carbonyl}azepan-2-carboxamide]
- IC50 (H3K27Ac): 2.53 µM

SMILES: COc1ccc(C2(C(=O)N3CCC[C@@H]3C(=O)Nc3ccncc3)CCCC2)cc1 [Example 11, 1-{[1-(4-Methoxyphenyl)cyclopentyl]carbonyl}-N-pyridin-4-yl-D-prolinamide]
- IC50 (H3K27Ac): 8.06 µM

SMILES: COc1ccc(C2(C(=O)N3CCCC3C(=O)Nc3cccc4c3cnn4C)CCCCC2)cc1 (stereo not drawn) [Example 3, 1-{[1-(4-Methoxyphenyl)cyclohexyl]carbonyl}-N-(1-methyl-1H-indazol-4-yl)prolinamide]
- IC50 (H3K27Ac): 10.6 µM

SMILES: COc1ccc(C2(C(=O)N3C[C@H](F)C[C@@H]3C(=O)Nc3ccc4c(n3)NC(=O)CO4)CCCCC2)cc1 [Example 67, (4R)-4-Fluoro-1-{[1-(4-methoxyphenyl)cyclohexyl]carbonyl}-N-(3-oxo-3,4-dihydro-2H-pyrido[3,2-b][1,4]oxazin-6-yl)-D-prolinamide]
- IC50 (H3K27Ac): 2.41 µM
- IC50 (CREBBP): 678 nM
- IC50 (EP300): 397 nM

SMILES: COc1ccc(C2(C(=O)N3CCC[C@@H]3C(=O)Nc3ccc4c(c3)CCC(=O)N4)CCCC2)cc1 [Example 18, l-{[1-(4-Methoxyphenyl)cyclopentyl]carbonyl}-N-(2-oxo-1,2,3,4-tetrahydroquinolin-6-yl)-D-prolinamide]
- IC50 (H3K27Ac): 3.34 µM

SMILES: COc1ccc(C2(C(=O)N3C[C@H](F)C[C@@H]3C(=O)Nc3cccc4[nH]ncc34)CCCCO2)cc1 (stereo partly drawn) [Example 43, (4R)-4-Fluoro-N-1H-indazol-4-yl-1-{[2-(4-methoxyphenyl)tetrahydro-2H-pyran-2-yl]carbonyl}-D-prolinamide]
- IC50 (H3K27Ac): 6.45 µM

SMILES: COc1ccc(C2(C(=O)N3CCC[C@@H]3C(=O)Nc3cccc4[nH]cnc34)CCCC2)cc1 [Example 59]
- IC50 (H3K27Ac): 2.5 µM

SMILES: COc1ccc(C2(C(=O)N3C[C@H](F)C[C@@H]3C(=O)Nc3cccc4[nH]ncc34)CCCOC2)cc1 (stereo partly drawn) [Example 42, (4R)-4-Fluoro-N-1H-indazol-4-yl-1-{[3-(4-methoxyphenyl)tetrahydro-2H-pyran-3-yl]carbonyl}-D-prolinamide]
- IC50 (H3K27Ac): 4.01 µM

SMILES: C#C[C@@]1(O)C[C@H](C(=O)Nc2ccccc2Cl)N(C(=O)C2(c3ccc(OC)cc3)CCCC2)C1 [Example 32, (4S)—N-(2-Chlorophenyl)-4-ethynyl-4-hydroxy-1-{[1-(4-methoxyphenyl)cyclopentyl]carbonyl}-D-prolinamide]
- IC50 (H3K27Ac): 1.65 µM

SMILES: COc1ccc(C2(C(=O)N3CCC[C@@H]3C(=O)Nc3ncccn3)CCCC2)cc1 [Example 20, 1-{[1-(4-Methoxyphenyl)cyclopentyl]carbonyl}-N-pyrimidin-2-yl-D-prolinamide]
- IC50 (H3K27Ac): 7.72 µM

SMILES: COc1ccc(C2(C(=O)N3CCC[C@@H]3C(=O)Nc3cccc4cccnc34)CCCC2)cc1 [Example 14, 1-{[1-(4-Methoxyphenyl)cyclopentyl]carbonyl}-N-quinolin-8-yl-D-prolinamide]
- IC50 (H3K27Ac): 6.67 µM

SMILES: O=C(O)c1ccc(C2(C(=O)N3CCC[C@@H]3C(=O)Nc3cccc4[nH]ncc34)CCCC2)cc1 [Example 4, 4-(1-{[(2R)-2-(1H-Indazol-4-ylcarbamoyl)pyrrolidin-1-yl]carbonyl}cyclopentyl)benzoic acid]
- IC50 (H3K27Ac): 11.7 µM
